Assay results as given in PubChem BioAssay AID248 (DTP/NCI, 2004).
Values joined by “and” are separate entries in the source; they are usually repeats but may differ in a detail not shown here. Equal entries are not always repeated. Inconclusive results and toxic doses are left out. Rule as the data show it: active = T/C of 150% or more; inactive = T/C below 125%.

System: L1210 leukemia ip in BDF1 mice, survival T/C
Test: NCI In Vivo Anticancer Drug Screen. Data for tumor model L1210 Leukemia (intraperitoneal) in B6D2F1 (BDF1) mice
Conditions: endpoint: mean survival time, higher = longer survival
In short: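 Value reflects the ratio of survival in compound-treated mice to survival in vehicle-treated controls, with both groups carrying the same transplanted tumor.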

[1] = dose: 50.0 mg/kg/injection, schedule: Q01DX009 (ip), vehicle: saline with Tween-80
[2] = dose: 100.0 mg/kg/injection, schedule: Q01DX009 (ip), vehicle: saline with Tween-80
[3] = dose: 100.0 mg/kg/injection, schedule: Q04DX003 (ip), vehicle: saline with Tween-80
[4] = dose: 200.0 mg/kg/injection, schedule: Q01DX009 (ip), vehicle: saline with Tween-80
[5] = dose: 200.0 mg/kg/injection, schedule: Q04DX003 (ip), vehicle: saline with Tween-80
[6] = dose: 100.0 mg/kg/injection, schedule: Q01DX001 (ip), vehicle: saline
[7] = dose: 100.0 mg/kg/injection, schedule: Q04DX002 (ip), vehicle: saline
[8] = dose: 200.0 mg/kg/injection, schedule: Q01DX001 (ip), vehicle: saline
[9] = dose: 400.0 mg/kg/injection, schedule: Q01DX001 (ip), vehicle: saline
[10] = dose: 100.0 mg/kg/injection, schedule: Q04DX002 (ip), vehicle: saline with Tween-80
[11] = dose: 200.0 mg/kg/injection, schedule: Q04DX002 (ip), vehicle: saline with Tween-80
[12] = dose: 400.0 mg/kg/injection, schedule: Q04DX002 (ip), vehicle: saline with Tween-80
[13] = dose: 75.0 mg/kg/injection, schedule: Q01DX001 (ip), vehicle: saline
[14] = dose: 150.0 mg/kg/injection, schedule: Q01DX001 (ip), vehicle: saline
[15] = dose: 100.0 mg/kg/injection, schedule: Q01DX009 (ip), vehicle: Klucel (hydroxypropylcellulose) (HPC)
[16] = dose: 200.0 mg/kg/injection, schedule: Q01DX009 (ip), vehicle: Klucel (hydroxypropylcellulose) (HPC)
[17] = dose: 400.0 mg/kg/injection, schedule: Q01DX009 (ip), vehicle: Klucel (hydroxypropylcellulose) (HPC)
[18] = dose: 100.0 mg/kg/injection, schedule: Q04DX003 (ip), vehicle: Klucel (hydroxypropylcellulose) (HPC)
[19] = dose: 200.0 mg/kg/injection, schedule: Q04DX003 (ip), vehicle: Klucel (hydroxypropylcellulose) (HPC)
[20] = dose: 400.0 mg/kg/injection, schedule: Q04DX003 (ip), vehicle: Klucel (hydroxypropylcellulose) (HPC)
[21] = dose: 100.0 mg/kg/injection, schedule: Q04DX002 (ip), vehicle: Klucel (hydroxypropylcellulose) (HPC)
[22] = dose: 200.0 mg/kg/injection, schedule: Q04DX002 (ip), vehicle: Klucel (hydroxypropylcellulose) (HPC)
[23] = dose: 400.0 mg/kg/injection, schedule: Q04DX002 (ip), vehicle: Klucel (hydroxypropylcellulose) (HPC)
[24] = dose: 100.0 mg/kg/injection, schedule: Q01DX001 (ip), vehicle: carboxymethylcellulose (CMC)
[25] = dose: 200.0 mg/kg/injection, schedule: Q01DX001 (ip), vehicle: carboxymethylcellulose (CMC)
[26] = dose: 400.0 mg/kg/injection, schedule: Q01DX001 (ip), vehicle: carboxymethylcellulose (CMC)

Measured: T/C

CC(=O)NCc1cc2c3c(c1)CCCN3CCC2
inactive: [1] 97 % of control | [2] 90 % of control | [3] 90 % of control | [4] 94 % of control | [5] 100 % of control

CCC12CCC(Br)C(C1)OC2=O (centres undefined)
inactive: [3] 98 % of control | [5] 91 % of control | dose: 400.0 mg/kg/injection, schedule: Q04DX003 (ip), vehicle: saline with Tween-80 93 % of control

CC(=O)OCC1CCC1
inactive: [6] 93 % of control | [7] 105 % of control | [8] 91 % of control | dose: 200.0 mg/kg/injection, schedule: Q04DX002 (ip), vehicle: saline 118 % of control | [9] 90 % of control | dose: 400.0 mg/kg/injection, schedule: Q04DX002 (ip), vehicle: saline 96 % of control

O=c1cc(-c2ccccc2)nc(SCc2ccccc2Cl)[nH]1
inactive: dose: 25.0 mg/kg/injection, schedule: Q01DX Z (ip), vehicle: methylcellulose (MC) 94 % of control

CCCCSC(C)(SCCCC)SCCCC
inactive: [10] 97 % of control | [11] 101 % of control | [12] 116 % of control

Cn1c(CC(O)(C(F)(F)F)C(F)(F)F)c(C(O)(C(F)(F)F)C(F)(F)F)c2ccccc21
inactive: dose: 5.0 mg/kg/injection, schedule: Q01DX009 (ip), vehicle: saline with Tween-80 100 % of control | dose: 10.0 mg/kg/injection, schedule: Q01DX009 (ip), vehicle: saline with Tween-80 94 % of control

Nc1nc(N)c2ncn(C3OC(CO)C(O)C3O)c2n1 (centres undefined)
inactive: [6] 102 % of control | [8] 115 % of control

CC1C(=O)OC2C1CCC1(C)C=CC(=O)C(C)C21 (centres undefined)
inactive: [13] 102 % of control | [14] 103 % of control

CSc1nccc2c1ncn2C1OC(CO)C(O)C1O (centres undefined)
inactive: [6] 104 % of control | [8] 95 % of control

Cc1ccc(S(=O)(=O)C(Cl)(Cl)Cl)cc1
inactive: dose: 100.0 mg/kg/injection, schedule: Q01DX001 (ip), vehicle: Klucel (hydroxypropylcellulose) (HPC) 96 % of control | [15] 97 % of control | dose: 200.0 mg/kg/injection, schedule: Q01DX001 (ip), vehicle: Klucel (hydroxypropylcellulose) (HPC) 96 % of control | [16] 104 % of control | dose: 400.0 mg/kg/injection, schedule: Q01DX001 (ip), vehicle: Klucel (hydroxypropylcellulose) (HPC) 102 % of control | [17] 104 % of control

c1ccc(CNCc2ccccn2)nc1
inactive: dose: 50.0 mg/kg/injection, schedule: Q04DX002 (ip), vehicle: saline 95 % of control | [7] 101 % of control

CCOC(=O)c1cnc(SC)nc1Nc1cccc(Cl)c1Cl
inactive: [18] 100 % of control | [19] 95 % of control | [20] 94 % of control

Nc1nnco1
inactive: dose: 222.0 mg/kg/injection, schedule: Q01DX Z (ip), vehicle: saline 97 % of control | dose: 333.0 mg/kg/injection, schedule: Q01DX Z (ip), vehicle: saline 108 % of control | dose: 500.0 mg/kg/injection, schedule: Q01DX Z (ip), vehicle: saline 97 % of control

CCC(COC(=O)c1ccc(N)cc1)NC(CC(C)C)CC(C)C (centres undefined)
inactive: dose: 75.0 mg/kg/injection, schedule: Q01DX001 (ip), vehicle: carboxymethylcellulose (CMC) 89 % of control | dose: 300.0 mg/kg/injection, schedule: Q01DX001 (ip), vehicle: carboxymethylcellulose (CMC) 91 % of control

COC(=O)C(Br)c1ccc([N+](=O)[O-])cc1 (centres undefined)
inactive: dose: 12.5 mg/kg/injection, schedule: Q01DX009 (ip), vehicle: saline with Tween-80 101 % of control | dose: 12.5 mg/kg/injection, schedule: Q04DX003 (ip), vehicle: saline 98 % of control | dose: 25.0 mg/kg/injection, schedule: Q01DX009 (ip), vehicle: saline with Tween-80 104 % of control | dose: 25.0 mg/kg/injection, schedule: Q04DX003 (ip), vehicle: saline 101 % of control | dose: 50.0 mg/kg/injection, schedule: Q04DX003 (ip), vehicle: saline 93 % of control

[Cl][Hg][c]1cccs1
inactive: dose: 12.5 mg/kg/injection, schedule: Q01DX009 (ip), vehicle: Klucel (hydroxypropylcellulose) (HPC) 95 % of control | dose: 25.0 mg/kg/injection, schedule: Q01DX009 (ip), vehicle: Klucel (hydroxypropylcellulose) (HPC) 93 % of control

CCCCCCCCCCCCN(CCCCCCCCCCCC)S(=O)(=O)c1ccc(Cl)c([N+](=O)[O-])c1
inactive: [18] 94 % of control | [19] 94 % of control | [20] 104 % of control

ClCC/C(=C(/Cl)c1ccccc1)c1ccccc1
inactive: [18] 103 % of control | [19] 98 % of control | [20] 98 % of control

CCn1cc(C(=O)O)c(=O)c2c3ccccc3ccc21
inactive: [21] 96 % of control | [22] 93 % of control | [23] 100 % of control

CC(=O)c1ccc2[nH]c(C)cc(=O)c2c1
inactive: [6] 94 % of control | [8] 107 % of control | [9] 96 % of control

Cc1ccc(C)c(NC(=O)NCc2ccccc2Cl)c1
inactive: [15] 103 % of control | [18] 104 % of control | [16] 101 % of control | [19] 98 % of control | [17] 93 % of control | [20] 89 % of control

Cc1ccc(NCC(O)CN2CCCCC2)cc1 (centres undefined)
inactive: dose: 10.0 mg/kg/injection, schedule: Q01DX009 (ip), vehicle: other 104 % of control | dose: 20.0 mg/kg/injection, schedule: Q01DX009 (ip), vehicle: other 98 % of control | dose: 40.0 mg/kg/injection, schedule: Q01DX009 (ip), vehicle: other 92 % of control

CC(C)=CCC/C(C)=C/C#N
inactive: [24] 100 % of control | [25] 111 % of control | [26] 94 % of control

Ic1ccc([I+]c2ccc(I)cc2)cc1
inactive: [21] 106 % of control | [22] 106 % of control | [23] 106 % of control

O=C(Nc1ccc(Cl)cc1[N+](=O)[O-])Oc1ccc(C(=O)OCc2ccccc2)cc1
inactive: [15] 101 % of control | [16] 103 % of control | [17] 110 % of control

[O]=[Sn]([OH])[c]1ccccc1
inactive: [10] 102 % of control | [11] 105 % of control | [12] 94 % of control

C=CC1CN2CCC1CC2C(O)c1ccnc2ccc(OC)cc12 (centres undefined) (tested in a mixture with another compound)
inactive: dose: 50.0 mg/kg/injection, schedule: Q01DX009 (ip), vehicle: Klucel (hydroxypropylcellulose) (HPC) 97 % of control and 95 % of control | [1] 95 % of control | dose: 50.0 mg/kg/injection, schedule: Q04DX003 (ip), vehicle: other 95 % of control | [13] 100 % of control and 99 % of control | [24] 98 % of control | dose: 100.0 mg/kg/injection, schedule: Q01DX001 (ip), vehicle: saline with Tween-80 96 % of control | [15] 97 % of control and 104 % of control | [2] 95 % of control | [21] 107 % of control | [18] 93 % of control | dose: 100.0 mg/kg/injection, schedule: Q04DX003 (ip), vehicle: other 103 % of control | [3] 103 % of control | dose: 100.0 mg/kg/injection, schedule: Q04DX003 (ip), vehicle: saline 102 % of control | [14] 86 % of control and 99 % of control | [25] 102 % of control | dose: 200.0 mg/kg/injection, schedule: Q01DX001 (ip), vehicle: saline with Tween-80 96 % of control | [16] 97 % of control | [4] 101 % of control | [22] 96 % of control | [19] 93 % of control | dose: 200.0 mg/kg/injection, schedule: Q04DX003 (ip), vehicle: other 93 % of control | [5] 87 % of control | dose: 200.0 mg/kg/injection, schedule: Q04DX003 (ip), vehicle: saline 96 % of control | dose: 300.0 mg/kg/injection, schedule: Q01DX001 (ip), vehicle: saline 89 % of control and 91 % of control | [26] 93 % of control | dose: 400.0 mg/kg/injection, schedule: Q01DX001 (ip), vehicle: saline with Tween-80 93 % of control | [23] 100 % of control
